In patent publication US20060229321A1, “Rosuvastatin in pre demented states” (priority 2001, published 2006):
Counter-ions that a name gives are not always drawn.

What was measured:
[1] = treatment of hypercholesterolemia; Am J. Med. 2000:108:538-547; cited from earlier work
[2] = test system: eNOS; assay: eNOS expression and activity in mice after subcutaneous rosuvastatin; type: in vivo; conditions: mouse, subcutaneous 2 or 20 mg/kg for 14 days
Source text: (§1) The studies were generally carried out according to the methods set forth in M. Endres et al., Stroke protection by 3-hydroxy-3-methylglutaryl (HMG)-CoA reductase inhibitors mediated by endothelial nitric oxide synthase, Proc. Natl. Acad. Sci. USA, 95:8880-8885 (1998). In many cases dementia is known to result from the cumulative neurodegenerative effects of strokes. These can be major strokes or sub-clinical strokes, and result in a heterogeneous group of dementias commonly called vascular dementia (VAD). In this study rosuvastatin protected the brain in mice from cerebral ischemia A mechanism by which rosuvastatin may prevent dementia is by protecting the brain from cerebral ischemia.

[3] = test system: cerebral ischemia caused by middle-cerebral artery occlusion (MCAO); assay: Infarct volume after middle-cerebral artery occlusion (MCAO) in mice; type: in vivo; conditions: mouse, subcutaneous 2 or 20 mg/kg for 14 days before MCAO
Source text: as §1

[4] = test system: cholesterol; conditions: cited from earlier work

SMILES	performance on neuropsychological tests of attention and psychomotor speed [1]	activity of eNOS [2]	expression of eNOS [2]	volume of infarct resulting from subsequent cerebral ischemia (MCAO) [3]	reducing cholesterol in patients versus other HMG-CoA reductase inhibitors [4]
CC[C@H](C)C(=O)O[C@H]1C[C@@H](C)C=C2C=C[C@H](C)[C@H](CC[C@@H]3C[C@@H](O)CC(=O)O3)[C@H]21 [Lovastatin]	small performance decrements				
CC(C)c1nc(N(C)S(C)(=O)=O)nc(-c2ccc(F)cc2)c1/C=C/[C@@H](O)C[C@@H](O)CC(=O)O [rosuvastatin, bis[(E)-7-[4-(4-fluorophenyl-6-isopropyl-2-[methyl(methylsulfonyl)amino]pyrimidin-5-yl]-(3R,5S)3,5-dihydroxyhept-6-enoic acid]calcium salt]		increased	increased	reduced	superior
